Broadly, the Ki is the dissociation constant of the complex between target and ligand, obtained from inhibition or displacement. A higher Ki goes with a looser hold on the target.

Experimental findings from patent publication US10053463B2 (Janssen Pharmaceutica NV, priority 2013, dated 2018) are described below.

Assay [1] deals with T1, P2X7 (Homo sapiens (Human), UniProt Q99572). The assay can be described thus: Radioligand binding, human P2X7-1321N1 cell membranes, tracer tritiated A-804598. Particulars: Table 3 (additional runs). On the procedure:
P2X7 Antagonism in Recombinant Human P2X7 Cells or Recombinant Rat P2X7 Cells: (a) Ca^2+ Flux and (b) Radioligand Binding
(b) Radioligand Binding: human or rat P2X7-1321N1 cells were collected and frozen @−80° C. On the day of the experiment, cell membrane preparations were made according to standard published methods. The total assay volume was 100 μl:10 μl compound (10×)+(b) 40 μl tracer (2.5×)+50 μl membrane (2×). The tracer used for the assay was tritiated A-804598. The compound can be prepared as described in the literature. (Donnelly-Roberts, D. Neuropharmacology 2008, 56 (1), 223-229.) Compounds, tracer and membranes were incubated for 1 hour @ 4° C. The assay was terminated by filtration (GF/B filters pre-soaked with 0.3% PEI) and washed with washing buffer (Tris-HCl 50 mM). The IC50 generated in the binding assay was corrected for tracer concentration and affinity of the tracer to derive at the affinity (K) of the test compounds. […] Data are analyzed and graphed on Graphpad Prism 5. For analysis, each concentration point is averaged from triplicate values and the averaged values are plotted on Graphpad Prism.

In assay [2] the target is T1, P2X7. The assay can be described thus: P2X7 antagonism in human peripheral blood mononuclear cells (PBMCs), IL-1β release. Format: cell-based. Conditions: Table 3 (additional runs); for remaining activity at 10 µM: P2X7, 10 μM compound, read-out: PBMC 10 μM (% control). The method, boiled down: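 Ficoll-isolated human PBMCs primed with LPS (30 ng/ml) for 1 h, treated with compound for 30 min, then stimulated with 0.5 mM Bz-ATP for 1.5 h. Supernatant IL-1β measured by ELISA as % of LPS+Bz-ATP minus LPS-only release; IC50 from concentration–response of triplicate means.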

T1 sequence (Q99572 whole entry): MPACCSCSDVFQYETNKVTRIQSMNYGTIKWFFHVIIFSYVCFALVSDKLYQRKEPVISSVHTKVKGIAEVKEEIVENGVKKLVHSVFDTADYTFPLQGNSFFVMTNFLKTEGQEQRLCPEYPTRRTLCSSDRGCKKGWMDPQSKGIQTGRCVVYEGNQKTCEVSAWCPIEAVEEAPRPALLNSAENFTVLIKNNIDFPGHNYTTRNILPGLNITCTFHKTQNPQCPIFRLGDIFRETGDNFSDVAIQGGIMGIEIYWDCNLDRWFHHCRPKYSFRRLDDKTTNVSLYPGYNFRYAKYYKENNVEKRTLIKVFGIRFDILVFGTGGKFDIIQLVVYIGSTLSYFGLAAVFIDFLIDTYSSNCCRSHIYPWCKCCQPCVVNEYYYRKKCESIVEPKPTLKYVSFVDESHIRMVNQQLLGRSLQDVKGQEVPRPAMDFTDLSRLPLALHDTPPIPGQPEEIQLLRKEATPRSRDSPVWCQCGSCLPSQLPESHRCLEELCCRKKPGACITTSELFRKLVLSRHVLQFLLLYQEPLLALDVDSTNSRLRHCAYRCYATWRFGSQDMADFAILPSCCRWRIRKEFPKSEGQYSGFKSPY

Take `C[C@H]1Cn2c(-c3nccc(C(F)(F)F)n3)nnc2-c2nnc(-c3cccc(C(F)(F)F)c3Cl)n21` [Example 118, (S)-3-[2-chloro-3-(trifluoromethyl)phenyl]-5-methyl-8-(4-(trifluoromethyl)pyrimidin-2-yl)-5,6-dihydrobis[1,2,4]triazolo[4,3-a:3′,4′-c]pyrazine]: the affinity on P2X7 [1] corresponds to a Ki of 63.1 nM. In addition, the remaining activity at 10 µM at P2X7 [2] is 9.9%.

The compound `C[C@H]1Cn2c(-c3cc(C(F)(F)F)ccn3)nnc2-c2nnc(-c3cccc(C(F)(F)F)c3Cl)n21` [Example 119, (S)-3-[2-chloro-3-(trifluoromethyl)phenyl]-5-methyl-8-(4-(trifluoromethyl)pyridin-2-yl)-5,6-dihydrobis[1,2,4]triazolo[4,3-a:3′,4′-c]pyrazine] yielded a Ki on P2X7 [1] of 14.1 nM. For the same compound, on P2X7 [2], the remaining activity at 10 µM amounted to 15%.

Consider `C[C@H]1Cn2c(-c3ccc(Cl)cn3)nnc2-c2nnc(-c3cccc(C(F)(F)F)c3Cl)n21` [Example 120, (S)-3-[2-chloro-3-(trifluoromethyl)phenyl]-5-methyl-8-(5-chloropyridin-2-yl)-5,6-dihydrobis[1,2,4]triazolo[4,3-a:3′,4′-c]pyrazine], for which, on P2X7 [1], the affinity corresponds to a Ki of 25.1 nM. Besides, on P2X7 [2], the remaining activity at 10 µM was 7%.

With `Cc1ccc(-c2nnc3n2C[C@H](C)n2c(-c4cccc(C(F)(F)F)c4Cl)nnc2-3)s1` [Example 121, (S)-3-[2-chloro-3-(trifluoromethyl)phenyl]-5-methyl-8-(5-methylthiophen-2-yl)-5,6-dihydrobis[1,2,4]triazolo[4,3-a:3′,4′-c]pyrazine], the affinity at P2X7 [1], expressed as Ki, was 15.8 nM. For the same compound, the remaining activity at 10 µM at P2X7 [2] turned out to be 9.3%.

As for `C[C@H]1Cn2c(-c3ccccn3)nnc2-c2nnc(-c3cccc(C(F)(F)F)c3Cl)n21` [Example 124, (S)-3-(2-chloro-3-(trifluoromethyl)phenyl)-5-methyl-8-(pyridin-2-yl)-5,6-dihydrobis([1,2,4]triazolo)[4,3-a:3′,4′-c]pyrazine], at P2X7 [1], the Ki stood at 3.6 nM. Also, the remaining activity at 10 µM at P2X7 [2] was -4.2%.

At P2X7 [1], `Cc1ccnc(-c2nnc3n2C[C@H](C)n2c(-c4cccc(C(F)(F)F)c4Cl)nnc2-3)c1` [Example 125, (S)-3-(2-chloro-3-(trifluoromethyl)phenyl)-5-methyl-8-(4-methylpyridin-2-yl)-5,6-dihydrobis([1,2,4]triazolo)[4,3-a:3′,4′-c]pyrazine] had a Ki of 10.5 nM. Further, the remaining activity at 10 µM at P2X7 [2] is 28.5%.

`C[C@H]1Cn2c(-c3ccc(F)cn3)nnc2-c2nnc(-c3cccc(Cl)c3Cl)n21` [Example 126, (S)-3-(2,3-dichlorophenyl)-8-(5-fluoropyridin-2-yl)-5-methyl-5,6-dihydrobis([1,2,4]triazolo)[4,3-a:3′,4′-c]pyrazine] gave a Ki on P2X7 [1] of 12.6 nM. Besides, on P2X7 [2], the remaining activity at 10 µM is -0.5%.

On P2X7 [1], `C[C@H]1Cn2c(-c3ccc(F)cn3)nnc2-c2nnc(-c3ccc(Cl)cc3Cl)n21` [Example 127, (S)-3-(2,4-dichlorophenyl)-8-(5-fluoropyridin-2-yl)-5-methyl-5,6-dihydrobis([1,2,4]triazolo)[4,3-a:3′,4′-c]pyrazine] had a Ki of 10 nM. Besides, the remaining activity at 10 µM on P2X7 [2] came out at 0.1%.

At P2X7 [1], `Cc1c(-c2nnc3n2[C@@H](C)Cn2c(-c4ccc(F)cn4)nnc2-3)cccc1C(F)(F)F` [Example 128, (S)-8-(5-fluoropyridin-2-yl)-5-methyl-3-(2-methyl-3-(trifluoromethyl)phenyl)-5,6-dihydrobis([1,2,4]triazolo)[4,3-a:3′,4′-c]pyrazine] came in with a Ki of 6.3 nM. The remaining activity at 10 µM at P2X7 [2] was 3.8%.

`COc1ccnc(-c2nnc3n2C[C@H](C)n2c(-c4cccc(Cl)c4Cl)nnc2-3)c1` [Example 129, (S)-3-(2,3-dichlorophenyl)-8-(4-methoxypyridin-2-yl)-5-methyl-5,6-dihydrobis([1,2,4]triazolo)[4,3-a:3′,4′-c]pyrazine] came in with a Ki on P2X7 [1] of 10 nM. The remaining activity at 10 µM at P2X7 [2] is -0.2%.

For the compound `COc1ccnc(-c2nnc3n2C[C@H](C)n2c(-c4ccc(Cl)cc4Cl)nnc2-3)c1` [Example 130, (S)-3-(2,4-dichlorophenyl)-8-(4-methoxypyridin-2-yl)-5-methyl-5,6-dihydrobis([1,2,4]triazolo)[4,3-a:3′,4′-c]pyrazine], the Ki on P2X7 [1] worked out at 6.3 nM. The remaining activity at 10 µM at P2X7 [2] is -0.7%.

As to `COc1ccnc(-c2nnc3n2C[C@H](C)n2c(-c4cccc(C(F)(F)F)c4C)nnc2-3)c1` [Example 131, (S)-8-(4-methoxypyridin-2-yl)-5-methyl-3-(2-methyl-3-(trifluoromethyl)phenyl)-5,6-dihydrobis([1,2,4]triazolo)[4,3-a:3′,4′-c]pyrazine], the Ki on P2X7 [1] worked out at 5 nM. The remaining activity at 10 µM at P2X7 [2] is 0.7%.

The compound `FC(F)(F)c1cccc(-c2nnc3n2CCn2c(-c4cnccn4)nnc2-3)c1Cl` [Example 132, 3-[2-Chloro-3-(trifluoromethyl)phenyl]-8-pyrazin-2-yl-5,6-dihydrobis[1,2,4]triazolo[4,3-a:3′,4′-c]pyrazine] yielded a Ki on P2X7 [1] of 28.2 nM. Besides, at P2X7 [2] (1 μM compound), the “PBMC 1 μM (% control)” value is listed as 50.7 % control.
